Experimental data published in patent publication US20040023295A1, “Methods and systems for analyzing complex biological systems” (priority 2001, published 2004).

Columns and labels:
Arabidopsis thaliana [1] = assay: Phenotypic profiling of Arabidopsis sprayed with unknown and commercial herbicides (MOA1); type: in vivo; details: Ward's method
Arabidopsis thaliana [2] = assay: Biochemical (metabolite) profiling by LC-MS and GC-MS of sprayed Arabidopsis (MOA1); details: within one hour after spraying

## CC(C)OC(=O)Nc1cccc(Cl)c1 [Chloropropham]
Arabidopsis thaliana [1]
  phenotype / hierarchical clustering of the eleven phenotypic characteristics: neither showed a strong herbicidal phenotype
Arabidopsis thaliana [2]
  stress related (commonly regulated) metabolites: neither butylate nor chlorpropham treatment resulted in many changes
